Molecules are shown by their SMILES. pKi: −log10 of the molar value.

In the test the target is human capsaicin receptor (VR1) (Homo sapiens, UniProt Q8NER1). The experiment in a line: Capsaicin receptor binding assay ([3H]RTX competition, VR1-transfected HEK293 membranes).
Sequence of human capsaicin receptor (VR1) (Q8NER1 whole entry): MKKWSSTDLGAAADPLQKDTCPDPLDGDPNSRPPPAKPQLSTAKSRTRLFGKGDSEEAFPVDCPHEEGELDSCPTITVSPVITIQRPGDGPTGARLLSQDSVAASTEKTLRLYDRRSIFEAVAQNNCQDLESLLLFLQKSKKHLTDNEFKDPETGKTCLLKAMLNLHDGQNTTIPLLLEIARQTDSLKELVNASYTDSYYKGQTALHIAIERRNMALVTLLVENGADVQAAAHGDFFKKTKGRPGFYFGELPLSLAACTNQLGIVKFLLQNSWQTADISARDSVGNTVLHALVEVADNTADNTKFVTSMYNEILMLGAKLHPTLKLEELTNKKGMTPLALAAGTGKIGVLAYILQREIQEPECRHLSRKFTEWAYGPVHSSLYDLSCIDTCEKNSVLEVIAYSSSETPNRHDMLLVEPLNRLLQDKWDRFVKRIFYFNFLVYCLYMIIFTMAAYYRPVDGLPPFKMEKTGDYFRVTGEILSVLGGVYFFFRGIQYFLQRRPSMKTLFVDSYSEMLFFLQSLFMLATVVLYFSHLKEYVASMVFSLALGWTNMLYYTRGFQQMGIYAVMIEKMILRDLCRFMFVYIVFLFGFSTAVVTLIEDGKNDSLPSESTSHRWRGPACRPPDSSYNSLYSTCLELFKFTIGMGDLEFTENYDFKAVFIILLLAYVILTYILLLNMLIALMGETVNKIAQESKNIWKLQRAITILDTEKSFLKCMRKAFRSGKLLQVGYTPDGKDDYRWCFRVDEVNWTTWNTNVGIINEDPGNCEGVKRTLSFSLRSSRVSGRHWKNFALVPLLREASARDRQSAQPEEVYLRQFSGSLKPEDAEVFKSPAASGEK
In turn, `C[C@@H]1CN(Cc2nc(Nc3ccc(C(C)(C)C)nc3)c3ncc(-c4ncccc4Cl)cc3n2)C[C@H](C)O1` [Compound 632, (6-tert-Butyl-pyridin-3-yl)-[7-(3-chloro-pyridin-2-yl)-2-(2,6-dimethyl-morpholin-4-ylmethyl)-pyrido[3,2-d]pyrimidin-4-yl]-amine (cis)] showed a pKi above 6.00. Next, `C[C@@H]1CN(Cc2nc(Nc3ccc(C(C)(C)C)cc3)c3ncc(-c4ncccc4Cl)cc3n2)C[C@H](C)O1` [Compound 633, (4-tert-Butyl-phenyl)-[7-(3-chloro-pyridin-2-yl)-2-(2,6-dimethyl-morpholin-4-ylmethyl)-pyrido[3,2-d]pyrimidin-4-yl]-amine (cis)]: above 6.00; `CC1CN(Cc2nc(Nc3ccc(C(F)(F)F)cc3)c3ccc(-c4ncccc4Cl)cc3n2)CC(C)N1` (centres unmarked) [Compound 634, [7-(3-Chloro-pyridin-2-yl)-2-(3,5-dimethyl-piperazin-1-ylmethyl)-quinazolin-4-yl]-(4-trifluoromethyl-phenyl)-amine]: above 6.00.

With `Cc1cccnc1-c1ccc2c(Nc3ccc(C(C)(C)C)cc3)nc(CN3C[C@@H](C)O[C@@H](C)C3)nc2c1` [Compound 635, (4-tert-Butyl-phenyl)-[2-(2,6-dimethyl-morpholin-4-ylmethyl)-7-(3-methyl-pyridin-2-yl)-quinazolin-4-yl]-amine (cis)], the negative-log Ki (pKi) was above 6.00. Next, `C[C@@H]1CN(Cc2nc(Nc3ccc(C(C)(C)C)cc3)c3ccc(-c4ccccn4)cc3n2)C[C@H](C)O1` [Compound 636, (4-tert-Butyl-phenyl)-[2-(2,6-dimethyl-morpholin-4-ylmethyl)-7-pyridin-2-yl-quinazolin-4-yl]-amine (cis)]: above 6.00; `Cc1cccc(-c2ccc3c(Nc4ccc(C(C)(C)C)cc4)nc(CN4C[C@@H](C)O[C@@H](C)C4)nc3c2)n1` [Compound 637, (4-tert-Butyl-phenyl)-[2-(2,6-dimethyl-morpholin-4-ylmethyl)-7-(6-methyl-pyridin-2-yl)-quinazolin-4-yl]amine (cis)]: above 6.00; `COc1ccccc1-c1ccc2c(Nc3ccc(C(F)(F)F)cc3)nc(CN3C[C@@H](C)O[C@@H](C)C3)nc2c1` [Compound 638, [2-(2,6-Dimethyl-morpholin-4-ylmethyl)-7-(2-methoxy-phenyl)-quinazolin-4-yl]-(4-trifluoromethyl-phenyl)-amine (cis)]: above 6.00.

`CC(=O)c1ccccc1-c1ccc2c(Nc3ccc(C(F)(F)F)cc3)nc(CN3C[C@@H](C)O[C@@H](C)C3)nc2c1` [Compound 639, 1-{2-[2-(2,6-Dimethyl-morpholin-4-ylmethyl)-4-(4-trifluoromethyl-phenylamino)-quinazolin-7-yl]-phenyl}-ethanone (cis)] gave a pKi above 6.00.

Molecule `CC(C)c1ccc(Nc2nc(CN3C[C@H](C)O[C@@H](C)C3)nc3cc(-c4ncccc4C(F)(F)F)ccc23)cc1` [Compound 640, (S,S)-[2-(2,6-Dimethyl-morpholin-4-ylmethyl)-7-(3-trifluoromethyl-pyridin-2-yl)-quinazolin-4-yl]-(4-isopropyl-phenyl)-amine] had a pKi above 6.00. As for `CCc1ccc(Nc2nc(CN3C[C@H](C)O[C@@H](C)C3)nc3cc(-c4ncccc4C(F)(F)F)ccc23)cc1` [Compound 641, (S,S)-[2-(2,6-Dimethyl-morpholin-4-ylmethyl)-7-(3-trifluoromethyl-pyridin-2-yl)-quinazolin-4-yl]-(4-ethyl-phenyl)-amine], the figure is above 6.00; as for `C[C@H]1CN(Cc2nc(Nc3ccc(Cl)cc3)c3ccc(-c4ncccc4C(F)(F)F)cc3n2)C[C@H](C)O1` [Compound 642, (S,S)-(4-Chloro-phenyl)-[2-(2,6-dimethyl-morpholin-4-ylmethyl)-7-(3-trifluoromethyl-pyridin-2-yl)-quinazolin-4-yIl]amine], above 6.00; as for `CC(C)S(=O)(=O)c1ccc(Nc2nc(CN3C[C@H](C)O[C@@H](C)C3)nc3cc(-c4ncccc4C(F)(F)F)ccc23)cc1` [Compound 643, (S,S)-[2-(2,6-Dimethyl-morpholin-4-ylmethyl)-7-(3-trifluoromethyl-pyridin-2-yl)-quinazolin-4-yl]-[4-(propane-2-sulfonyl)-phenyl]-amine], above 6.00. Regarding `C[C@H]1CN(Cc2nc(Nc3ccc(Cl)cc3)c3ccc(-c4ncccc4Cl)cc3n2)C[C@H](C)O1` [Compound 644, (S,S)-(4-Chloro-phenyl)-[7-(3-chloro-pyridin-2-yl)-2-(2,6-dimethyl-morpholin-4-ylmethyl)-quinazolin-4-yl]-amine], the pKi was above 6.00. Next, `CC(C)S(=O)(=O)c1ccc(Nc2nc(CN3C[C@H](C)O[C@@H](C)C3)nc3cc(-c4ncccc4Cl)ccc23)cc1` [Compound 645, (S,S)-[7-(3-Chloro-pyridin-2-yl)-2-(2,6-dimethyl-morpholin-4-ylmethyl)-quinazolin-4-yl]-[4-(propane-2-sulfonyl)-phenyl]-amine]: above 6.00; `CC(C)S(=O)(=O)c1ccc(Nc2nc(CN3CCO[C@@H](C)C3)nc3cc(-c4ncccc4Cl)ccc23)cc1` [Compound 646, (S)-[7-(3-Chloro-pyridin-2-yl)-2-(2-methyl-morpholin-4-ylmethyl)-quinazolin-4-yl]-[4-(propane-2-sulfonyl)-phenyl]-amine]: above 6.00. Next, `C[C@H]1CN(Cc2nc(Nc3ccc(C(C)(C)C)cc3)c3ccc(-c4ncccc4Cl)cc3n2)CCO1` [Compound 647, (S)-(4-tert-Butyl-phenyl)-[7-(3-chloro-pyridin-2-yl)-2-(2-methyl-morpholin-4-ylmethyl)-quinazolin-4-yl]-amine]: above 6.00; `CC(C)c1ccc(Nc2nc(CN3CCO[C@@H](C)C3)nc3cc(-c4ncccc4Cl)ccc23)cc1` [Compound 648, (S)-[7-(3-Chloro-pyridin-2-yl)-2-(2-methyl-morpholin-4-ylmethyl)-quinazolin-4-yl]-(4-isopropyl-phenyl)-amine]: above 6.00; `C[C@H]1CN(Cc2nc(Nc3ccc(C(C)(C)C)cc3)c3ccc(-c4ncccc4Cl)cc3n2)C[C@H](C)O1` [Compound 649, (S,S)-(4-tert-Butyl-phenyl)-[7-(3-chloro-pyridin-2-yl)-2-(2,6-dimethyl-morpholin-4-ylmethyl)-quinazolin-4-yl]-amine]: above 6.00. As for `CC(C)c1ccc(Nc2nc(CN3C[C@H](C)O[C@@H](C)C3)nc3cc(-c4ncccc4Cl)ccc23)cc1` [Compound 650, (S,S)-[7-(3-Chloro-pyridin-2-yl)-2-(2,6-dimethyl-morpholin-4-ylmethyl)-quinazolin-4-yl]-(4-isopropyl-phenyl)-amine], the figure is above 6.00.

As to `CCc1ccc(Nc2nc(CN3C[C@H](C)O[C@@H](C)C3)nc3cc(-c4ncccc4Cl)ccc23)cc1` [Compound 651, (S,S)-[7-(3-Chloro-pyridin-2-yl)-2-(2,6-dimethyl-morpholin-4-ylmethyl)-quinazolin-4-yl]-(4-ethyl-phenyl)-amine], the pKi was above 6.00. As for `CC(C)c1ccc(Nc2nc(CN3C[C@@H](C)O[C@H](C)C3)nc3cc(-c4ncccc4C(F)(F)F)ccc23)cc1` [Compound 652, (R,R)-[2-(2,6-Dimethyl-morpholin-4-ylmethyl)-7-(3-trifluoromethyl-pyridin-2-yl)-quinazolin-4-yl]-(4-isopropyl-phenyl)-amine], the figure is above 6.00; as for `C[C@@H]1CN(Cc2nc(Nc3ccc(Cl)cc3)c3ccc(-c4ncccc4C(F)(F)F)cc3n2)C[C@@H](C)O1` [Compound 654, (R,R)-(4-Chloro-phenyl)-[2-(2,6-dimethyl-morpholin-4-ylmethyl)-7-(3-trifluoromethyl-pyridin-2-yl)-quinazolin-4-yl]-amine], above 6.00. As for `CC(C)S(=O)(=O)c1ccc(Nc2nc(CN3C[C@@H](C)O[C@H](C)C3)nc3cc(-c4ncccc4C(F)(F)F)ccc23)cc1` [Compound 655, (R,R)-[2-(2,6-Dimethyl-morpholin-4-ylmethyl)-7-(3-trifluoromethyl-pyridin-2-yl)-quinazolin-4-yl]-[4-(propane-2-sulfonyl)-phenyl]-amine], the figure is above 6.00. Next, `O=C(OCc1ccccc1)N1CCC[C@H]1c1nc(Nc2ccc(C(F)(F)F)cc2)c2ccc(-c3ncccc3C(F)(F)F)cc2n1` [Compound 656, (S)-2-[4-(4-Trifluoromethyl-phenylamino)-7-(3-trifluoromethyl-pyridin-2-yl)-quinazolin-2-yl]-pyrrolidine-1-carboxylic acid benzyl ester]: above 6.00; `C[C@@H]1CN(Cc2nc(Nc3ccc(C(F)(F)F)cc3)c3ncc(-c4ncccc4C(F)(F)F)cc3n2)C[C@@H](C)O1` [Compound 657, (R,R)-[2-(2,6-Dimethyl-morpholin-4-ylmethyl)-7-(3-trifluoromethyl-pyridin-2-yl)-pyrido[3,2-d]pyrimidin-4-yl]-(4-trifluoromethyl-phenyl)-amine]: above 6.00. Take `C[C@H]1CN(Cc2nc(Nc3ccc(C(F)(F)F)cc3)c3ncc(-c4ncccc4C(F)(F)F)cc3n2)C[C@H](C)O1` [Compound 658, (S,S)-[2-(2,6-Dimethyl-morpholin-4-ylmethyl)-7-(3-trifluoromethyl-pyridin-2-yl)-pyrido[3,2-d]pyrimidin-4-yl]-(4-trifluoromethyl-phenyl)-amine]: the pKi is above 6.00.

`FC(F)(F)c1ccc(Nc2nc(CN3CCCCCC3)nc3cc(-c4ncccc4C(F)(F)F)cnc23)cc1` [Compound 659, [2-Azepan-1-ylmethyl-7-(3-trifluoromethyl-pyridin-2-yl)-pyrido[3,2-d]pyrimidin-4-yl]-(4-trifluoromethyl-phenyl)-amine] had a pKi above 6.00.

Consider `FC(F)(F)c1ccc(Nc2nc(CN3CCSCC3)nc3cc(-c4ncccc4C(F)(F)F)cnc23)cc1` [Compound 660, [2-Thiomorpholin-4-ylmethyl-7-(3-trifluoromethyl-pyridin-2-yl)-pyrido[3,2-d]pyrimidin-4-yl]-(4-trifluoromethyl-phenyl)-amine], for which the negative-log Ki (pKi) is above 6.00. `CC1(C)CCCN(Cc2nc(Nc3ccc(C(F)(F)F)cc3)c3ncc(-c4ncccc4C(F)(F)F)cc3n2)C1` [Compound 661, [2-(3,3-Dimethyl-piperidin-1-ylmethyl)-7-(3-trifluoromethyl-pyridin-2-yl)-pyrido[3,2-d]pyrimidin-4-yl]-(4-trifluoromethyl-phenyl)-amine] showed a pKi above 6.00.

The values are drawn from US20040156869A1, “2-substituted quinazolin-4-ylamine analogues” (Neurogen Corporation, priority 2002, published 2004).
